Test results published in ChEMBL document CHEMBL1153076, “Effect of flavonoids on androgen and glucocorticoid receptors based on in vitro reporter gene assay” (Bioorg Med Chem Lett, 2009).
pIC50: −log10 of the molar value. The source made the active and inactive calls.

Assays:
[1] = molecular target: T1, Glucocorticoid receptor (Homo sapiens) (UniProt P04150); conditions: MDA-kb2
T1 sequence (whole entry): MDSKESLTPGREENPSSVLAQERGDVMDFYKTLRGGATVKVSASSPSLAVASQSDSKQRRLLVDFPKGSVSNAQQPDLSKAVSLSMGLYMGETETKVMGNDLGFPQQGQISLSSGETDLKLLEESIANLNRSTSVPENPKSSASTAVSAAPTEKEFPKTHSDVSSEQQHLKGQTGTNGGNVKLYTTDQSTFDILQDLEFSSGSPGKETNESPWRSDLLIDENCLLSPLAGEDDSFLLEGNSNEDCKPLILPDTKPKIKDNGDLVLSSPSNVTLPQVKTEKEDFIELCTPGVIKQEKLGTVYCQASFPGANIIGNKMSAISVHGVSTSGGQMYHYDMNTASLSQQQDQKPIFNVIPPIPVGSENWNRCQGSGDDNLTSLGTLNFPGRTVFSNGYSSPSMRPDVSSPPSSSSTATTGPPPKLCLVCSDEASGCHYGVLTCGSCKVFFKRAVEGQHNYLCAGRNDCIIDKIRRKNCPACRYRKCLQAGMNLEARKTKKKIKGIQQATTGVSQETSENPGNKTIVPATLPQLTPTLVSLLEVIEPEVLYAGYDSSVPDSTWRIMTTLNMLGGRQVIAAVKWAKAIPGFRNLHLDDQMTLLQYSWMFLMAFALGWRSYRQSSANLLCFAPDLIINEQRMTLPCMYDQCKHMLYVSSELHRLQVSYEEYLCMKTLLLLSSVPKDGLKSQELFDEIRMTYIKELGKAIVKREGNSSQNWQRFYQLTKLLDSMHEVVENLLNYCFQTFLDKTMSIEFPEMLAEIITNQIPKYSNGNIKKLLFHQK
Description: Agonist activity at glucocorticoid receptor in human MDA-kb2 cells assessed as stimulation of luciferase activity at 100 uM by luciferase reporter gene assay

Androgen receptor [2] = molecular target: T2, Androgen receptor (Homo sapiens, UniProt P10275); assay: Antagonist activity at androgen receptor in human MDA-kb2 cells assessed as inhibition of DHT-induced luciferase activity by luciferase reporter gene assay
T2 sequence (P10275 whole entry): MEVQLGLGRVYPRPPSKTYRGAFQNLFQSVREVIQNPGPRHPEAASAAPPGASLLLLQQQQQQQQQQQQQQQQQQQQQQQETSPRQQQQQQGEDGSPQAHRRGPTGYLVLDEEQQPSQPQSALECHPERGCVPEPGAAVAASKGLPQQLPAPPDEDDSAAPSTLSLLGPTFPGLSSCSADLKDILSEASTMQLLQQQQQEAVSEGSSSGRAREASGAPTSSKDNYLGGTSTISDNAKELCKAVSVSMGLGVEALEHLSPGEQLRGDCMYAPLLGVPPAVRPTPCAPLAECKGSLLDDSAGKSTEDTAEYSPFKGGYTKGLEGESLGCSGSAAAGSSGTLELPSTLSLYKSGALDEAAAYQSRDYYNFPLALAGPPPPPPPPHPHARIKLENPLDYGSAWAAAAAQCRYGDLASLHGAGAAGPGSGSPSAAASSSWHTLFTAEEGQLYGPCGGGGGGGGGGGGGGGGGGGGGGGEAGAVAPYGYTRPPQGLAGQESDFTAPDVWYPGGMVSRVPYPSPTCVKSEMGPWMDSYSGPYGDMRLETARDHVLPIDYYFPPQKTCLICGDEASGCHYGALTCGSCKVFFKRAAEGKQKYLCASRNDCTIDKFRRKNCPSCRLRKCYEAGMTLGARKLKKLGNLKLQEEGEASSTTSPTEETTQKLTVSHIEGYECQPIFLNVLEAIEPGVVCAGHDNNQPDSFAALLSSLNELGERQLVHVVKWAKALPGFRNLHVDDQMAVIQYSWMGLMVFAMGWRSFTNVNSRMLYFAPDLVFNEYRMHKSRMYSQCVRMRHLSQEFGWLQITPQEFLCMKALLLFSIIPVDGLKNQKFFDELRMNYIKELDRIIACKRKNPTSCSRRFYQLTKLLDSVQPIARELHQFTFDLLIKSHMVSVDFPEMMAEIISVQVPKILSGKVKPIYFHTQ

[3] = molecular target: T3, Androgen receptor (Homo sapiens) (UniProt P10275); conditions: MDA-kb2
T3 sequence (whole entry): T2 sequence (P10275 whole entry)
Description: Agonist activity at androgen receptor in human MDA-kb2 cells assessed as stimulation of luciferase activity at 100 uM by luciferase reporter gene assay

[4] = molecular target: T1, Glucocorticoid receptor (Homo sapiens); conditions: MDA-kb2; remark: listed apart in the source
[5] = molecular target: T3, Androgen receptor (Homo sapiens); conditions: MDA-kb2; remark: listed apart in the source
Description: Agonist activity at androgen receptor in human MDA-kb2 cells assessed as stimulation of luciferase activity by luciferase reporter gene assay

Androgen receptor [6] = molecular target: T2, Androgen receptor; assay: Antagonist activity at androgen receptor in human MDA-kb2 cells assessed as inhibition of DHT-induced luciferase activity at 100 uM by luciferase reporter gene assay; assay type: functional, cell-based
[7] = molecular target: T1, Glucocorticoid receptor (Homo sapiens); assay: Agonist activity at glucocorticoid receptor in human MDA-kb2 cells assessed as stimulation of luciferase activity by luciferase reporter gene assay in presence of glucocorticoid receptor agonist Dex; assay type: functional, cell-based
[8] = molecular target: T1, Glucocorticoid receptor (Homo sapiens); assay: Agonist activity at glucocorticoid receptor in human MDA-kb2 cells assessed as stimulation of luciferase activity at 0.03 mM by luciferase reporter gene assay in presence of androgen receptor agonist DHT; assay type: functional, cell-based
[9] = molecular target: T3, Androgen receptor (Homo sapiens); assay: Ratio of compound EC150 to Dex EC150 for androgen receptor in human MDA-kb2 cells; assay type: cell-based
[10] = molecular target: T1, Glucocorticoid receptor (Homo sapiens); assay: Ratio of compound EC150 to Dex EC150 for glucocorticoid receptor in human MDA-kb2 cells; assay type: cell-based
[11] = molecular target: T1, Glucocorticoid receptor (Homo sapiens); assay: Ratio of compound EC150 to DHT EC150 glucocorticoid receptor in human MDA-kb2 cells; assay type: cell-based
[12] = molecular target: T3, Androgen receptor (Homo sapiens); assay: Ratio of compound EC150 to DHT EC150 for androgen receptor in human MDA-kb2 cells; assay type: cell-based
[13] = molecular target: T1, Glucocorticoid receptor (Homo sapiens); assay: Agonist activity at glucocorticoid receptor in human MDA-kb2 cells assessed as stimulation of luciferase activity by luciferase reporter gene assay in presence of androgen receptor agonist DHT; assay type: functional, cell-based

Structure (SMILES) | EC150 [4] [µM] | EC150 [5] [µM] | also measured
O=c1c(O)c(-c2ccccc2)oc2ccccc12 [FLAVONOL] | – | – | EC150 [1]: inactive; pIC50 (Androgen receptor [2]): 4.63; EC150 [3]: inactive
O=C1c2ccc(O)cc2OC(c2ccc(O)c(O)c2)C1O (stereo not drawn) | – | – | EC150 [1]: inactive; EC150 [3]: inactive
O=c1c(O)c(-c2ccccc2)oc2cc(O)cc(O)c12 | 633 | 633 | –
O=c1cc(-c2ccccc2)oc2ccccc12 [FLAVONE] | 26.1 | 26.1 | pIC50 (Androgen receptor [2]): 5.23; pIC50 (Androgen receptor [2]; mda-kb2): 5.23
COc1cccc2oc(-c3ccccc3)cc(=O)c12 | 5.5 | 5.5 | pIC50 (Androgen receptor [2]): 5.06
COc1cc(O)c2c(=O)c(-c3ccc(O)cc3)coc2c1 [PRUNETIN] | 3.2 | 3.2 | AR antagonist activity at 100 uM (active/inactive) (Androgen receptor [6]): Not Active
COc1ccc(-c2cc(=O)c3c(O)cc(O)cc3o2)cc1 | 2.1 | 2.1 | –
COc1ccc2c(c1)C(=O)CC(c1ccccc1)O2 (stereo not drawn) | 4.08 | – | pIC50 (Androgen receptor [2]): 4.40
O=c1cc(-c2ccccc2)oc2ccc(O)cc12 [6-HYDROXYFLAVONE] | 7.1 | 7.1 | AR antagonist activity at 100 uM (active/inactive) (Androgen receptor [6]): Not Active; EC150 [7]: 4.1 µM; Activity [8]: inactive
O=C1CC(c2ccccc2)Oc2ccc(O)cc21 (stereo not drawn) | – | – | EC150 [1]: inactive; pIC50 (Androgen receptor [2]): 5.48; EC150 [3]: inactive
COc1ccc2oc(-c3ccccc3)c(O)c(=O)c2c1 | 10.3 | 10.3 | –
O=C1CC(c2ccccc2)Oc2ccccc21 (stereo not drawn) [FLAVANONE] | 380 | 380 | pIC50 (Androgen receptor [2]): 4.70
O=c1cc(-c2ccccc2)oc2cc(O)c(O)c(O)c12 | 18.9 | 18.9 | Activity [7]: Active
O=c1c(-c2ccc(O)cc2)coc2cc(O)ccc12 [DAIDZEIN] | 10.1 | 10.1 | AR antagonist activity at 100 uM (active/inactive) (Androgen receptor [6]): Not Active
O=c1c(O)c(-c2ccccc2)oc2ccc(O)cc12 | 1.54 | – | Activity [7]: Active
COc1ccc2c(c1)OC(c1ccccc1)CC2=O (stereo not drawn) | – | – | EC150 [1]: inactive; EC150 [3]: inactive
O=c1c(O)c(-c2ccc(O)c(O)c2)oc2cc(O)ccc12 | – | – | EC150 [1]: inactive; EC150 [3]: inactive
Cc1ccc2oc(-c3ccccc3)cc(=O)c2c1 | 3.6 | 3.6 | –
O=c1cc(-c2ccc(O)c(O)c2)oc2cc(O)cc(O)c12 | 18 | 18 | –
O=c1cc(-c2ccccc2)oc2cc(O)ccc12 | 3.1 | 3.1 | –
C[C@]12CCC(=O)C[C@@H]1CC[C@@H]1[C@@H]2CC[C@]2(C)[C@@H](O)CC[C@@H]12 | 0.0005 | – | –
COc1ccc2c(=O)cc(-c3ccccc3)oc2c1 | 21.9 | 21.9 | –
COc1ccc2oc(-c3ccccc3)cc(=O)c2c1 | 0.7 | 0.7 | Ratio [9]: 3.6; Ratio [10]: 3.6; Ratio [11]: 1400; Ratio [12]: 1400
O=c1cc(-c2ccccc2)oc2ccc(Cl)cc12 | 12.6 | 12.6 | –
O=C1C[C@@H](c2ccc(O)cc2)Oc2cc(O)cc(O)c21 | – | – | EC150 [1]: inactive; EC150 [3]: inactive
O=c1c(-c2ccc(O)cc2)coc2cc(O)cc(O)c12 [GENISTEIN] | 4.4 | 4.4 | pIC50 (Androgen receptor [2]): 2.89; Ratio [9]: 23; Ratio [10]: 23; Ratio [11]: 10000; Ratio [12]: 10000
O=c1cc(-c2ccccc2)oc2cccc(O)c12 | 6 | 6 | –
O=c1cc(-c2ccccc2)oc2cc(O)cc(O)c12 [CHRYSIN] | 1.5 | 1.5 | AR antagonist activity at 100 uM (active/inactive) (Androgen receptor [6]): Active; Activity [13]: Active
